Results taken from PubChem BioAssay AID248 (DTP/NCI, 2004).
Toxic doses and inconclusive results are not listed. No stated cut-off is given here; in the data, active means T/C of 150% or more; inactive means T/C below 125%. Square brackets hold non-standard residues; d marks the D form. Peptide text beside a SMILES is read from it. Ac5c = NC1(C(=O)O)CCCC1

Tested on: L1210 leukemia ip in BDF1 mice, survival T/C
Assay: NCI In Vivo Anticancer Drug Screen. Data for tumor model L1210 Leukemia (intraperitoneal) in B6D2F1 (BDF1) mice
Details: endpoint: mean survival time, higher = longer survival
Summary of the method: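 Antitumor effect is assessed in tumor-bearing animals. Survival in the compound arm is compared with a vehicle-dosed control arm and expressed as their quotient.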

[1] = dose: 100.0 mg/kg/injection, schedule: Q01DX009 (ip), vehicle: saline
[2] = dose: 200.0 mg/kg/injection, schedule: Q01DX001 (ip), vehicle: saline with Tween-80
[3] = dose: 400.0 mg/kg/injection, schedule: Q01DX001 (ip), vehicle: saline with Tween-80
[4] = dose: 12.5 mg/kg/injection, schedule: Q01DX009 (ip), vehicle: saline with Tween-80
[5] = dose: 25.0 mg/kg/injection, schedule: Q01DX009 (ip), vehicle: saline with Tween-80
[6] = dose: 50.0 mg/kg/injection, schedule: Q01DX009 (ip), vehicle: saline with Tween-80
[7] = dose: 100.0 mg/kg/injection, schedule: Q01DX001 (ip), vehicle: saline with Tween-80
[8] = dose: 100.0 mg/kg/injection, schedule: Q01DX009 (ip), vehicle: saline with Tween-80
[9] = dose: 200.0 mg/kg/injection, schedule: Q01DX009 (ip), vehicle: saline with Tween-80
[10] = dose: 400.0 mg/kg/injection, schedule: Q01DX009 (ip), vehicle: saline with Tween-80
[11] = dose: 100.0 mg/kg/injection, schedule: Q01DX001 (ip), vehicle: carboxymethylcellulose (CMC)
[12] = dose: 200.0 mg/kg/injection, schedule: Q01DX001 (ip), vehicle: carboxymethylcellulose (CMC)
[13] = dose: 400.0 mg/kg/injection, schedule: Q01DX001 (ip), vehicle: carboxymethylcellulose (CMC)
[14] = dose: 100.0 mg/kg/injection, schedule: Q04DX003 (ip), vehicle: Klucel (hydroxypropylcellulose) (HPC)
[15] = dose: 200.0 mg/kg/injection, schedule: Q04DX003 (ip), vehicle: Klucel (hydroxypropylcellulose) (HPC)
[16] = dose: 100.0 mg/kg/injection, schedule: Q01DX001 (ip), vehicle: saline
[17] = dose: 200.0 mg/kg/injection, schedule: Q01DX001 (ip), vehicle: saline
[18] = dose: 400.0 mg/kg/injection, schedule: Q01DX001 (ip), vehicle: saline

Measured: T/C

CC(C)=CCC(CCN1CCCCC1)(C(N)=O)c1cccc2ccccc12 (stereo not drawn)
inactive: dose: 1.5 mg/kg/injection, schedule: Q01DX009 (ip), vehicle: Klucel (hydroxypropylcellulose) (HPC) 104 % of control | dose: 3.12 mg/kg/injection, schedule: Q01DX009 (ip), vehicle: Klucel (hydroxypropylcellulose) (HPC) 104 % of control | dose: 6.25 mg/kg/injection, schedule: Q01DX009 (ip), vehicle: Klucel (hydroxypropylcellulose) (HPC) 95 % of control | dose: 6.25 mg/kg/injection, schedule: Q04DX002 (ip), vehicle: Klucel (hydroxypropylcellulose) (HPC) 97 % of control | dose: 12.5 mg/kg/injection, schedule: Q04DX002 (ip), vehicle: Klucel (hydroxypropylcellulose) (HPC) 97 % of control | dose: 25.0 mg/kg/injection, schedule: Q04DX002 (ip), vehicle: Klucel (hydroxypropylcellulose) (HPC) 103 % of control

CCC(C)C(CCCCN(C)C)(CNC(=O)CN(CC)CC)c1cccc2ccccc12 (stereo not drawn)
inactive: [1] 99 % of control

Cc1[nH]c(C(=O)OCc2ccccc2)c(C)c1C(=O)OCc1ccccc1
inactive: dose: 12.0 mg/kg/injection, schedule: Q01DX001 (ip), vehicle: Klucel (hydroxypropylcellulose) (HPC) 94 % of control | dose: 25.0 mg/kg/injection, schedule: Q01DX001 (ip), vehicle: Klucel (hydroxypropylcellulose) (HPC) 100 % of control | dose: 50.0 mg/kg/injection, schedule: Q01DX001 (ip), vehicle: Klucel (hydroxypropylcellulose) (HPC) 97 % of control | [2] 102 % of control | [3] 102 % of control

c1cc2c(c(NC3=NCCCO3)c1)CCCC2
inactive: [4] 95 % of control | [5] 106 % of control | [6] 106 % of control | dose: 50.0 mg/kg/injection, schedule: Q04DX003 (ip), vehicle: saline with Tween-80 101 % of control

CC1=COC2(CC1)OC1CC3C4CCC5CC(O)CCC5(C)C4CCC3(C)C1C2C (stereo not drawn)
inactive: [7] 96 % of control | [2] 102 % of control | [3] 95 % of control

CCCCN=C(NCCCC)Oc1ccccc1
inactive: dose: 26.6 mg/kg/injection, schedule: Q01DX Z (ip), vehicle: methylcellulose (MC) 104 % of control | dose: 40.0 mg/kg/injection, schedule: Q01DX Z (ip), vehicle: methylcellulose (MC) 102 % of control | dose: 60.0 mg/kg/injection, schedule: Q01DX Z (ip), vehicle: methylcellulose (MC) 102 % of control

CCOC(=O)c1ccc(NC(=O)Oc2cc(C)ccc2C)cc1
inactive: dose: 100.0 mg/kg/injection, schedule: Q01DX009 (ip), vehicle: Klucel (hydroxypropylcellulose) (HPC) 93 % of control | dose: 200.0 mg/kg/injection, schedule: Q01DX009 (ip), vehicle: Klucel (hydroxypropylcellulose) (HPC) 92 % of control | dose: 400.0 mg/kg/injection, schedule: Q01DX009 (ip), vehicle: Klucel (hydroxypropylcellulose) (HPC) 90 % of control

c1ccc(CN2CCN(Cc3ccccc3)C2c2ccccc2)cc1
inactive: [5] 97 % of control | [6] 103 % of control | [8] 106 % of control | [9] 105 % of control | [10] 106 % of control

NC1(C(=O)NCC(=O)O)CCCC1 (H-[Ac5c]-Gly-OH)
inactive: dose: 100.0 mg/kg/injection, schedule: Q04DX003 (ip), vehicle: saline 104 % of control | dose: 200.0 mg/kg/injection, schedule: Q04DX003 (ip), vehicle: saline 100 % of control

C(=N\N1CCN(/N=C/c2ccc3ccccc3n2)CC1)/c1ccc2ccccc2n1
inactive: [11] 89 % of control | [12] 86 % of control | [13] 94 % of control

CCOC(=O)C1CC2(SCCS2)C(C(=O)O)CC12SCCS2 (stereo not drawn)
inactive: dose: 100.0 mg/kg/injection, schedule: Q04DX003 (ip), vehicle: other 103 % of control | dose: 200.0 mg/kg/injection, schedule: Q04DX003 (ip), vehicle: other 92 % of control | dose: 400.0 mg/kg/injection, schedule: Q04DX003 (ip), vehicle: other 97 % of control

O=[N+]([O-])c1ccc(/C=C/C=C/c2ccccc2)cc1Cl
inactive: [14] 102 % of control | [15] 102 % of control | dose: 400.0 mg/kg/injection, schedule: Q04DX003 (ip), vehicle: Klucel (hydroxypropylcellulose) (HPC) 101 % of control

CCCC1C2C(=O)N(c3ccccc3)C(=O)C2ON1c1ccccc1 (stereo not drawn)
inactive: dose: 50.0 mg/kg/injection, schedule: Q01DX001 (ip), vehicle: saline 104 % of control | [16] 98 % of control | [17] 101 % of control | [18] 106 % of control

[O-][n+]1ccc(Cl)cc1
inactive: [1] 100 % of control | dose: 200.0 mg/kg/injection, schedule: Q01DX009 (ip), vehicle: saline 96 % of control | dose: 400.0 mg/kg/injection, schedule: Q01DX009 (ip), vehicle: saline 94 % of control

CCCCSc1ccc2c(cc1=O)C(N)CCc1cc(OC)c(OC)c(OC)c1-2 (stereo not drawn)
inactive: dose: 12.5 mg/kg/injection, schedule: Q04DX002 (ip), vehicle: saline 104 % of control | dose: 25.0 mg/kg/injection, schedule: Q04DX002 (ip), vehicle: saline 88 % of control | dose: 50.0 mg/kg/injection, schedule: Q04DX002 (ip), vehicle: saline 95 % of control

CC(C)(NC(=O)c1ccccc1)C(=O)O
inactive: dose: 50.0 mg/kg/injection, schedule: Q04DX003 (ip), vehicle: Klucel (hydroxypropylcellulose) (HPC) 106 % of control | [14] 96 % of control | [15] 88 % of control

ClC(Cl)(Cl)c1ccc(C(SCc2ccccc2)SCc2ccccc2)cc1
inactive: dose: 100.0 mg/kg/injection, schedule: Q04DX003 (ip), vehicle: saline with Tween-80 86 % of control | dose: 200.0 mg/kg/injection, schedule: Q04DX003 (ip), vehicle: saline with Tween-80 89 % of control | dose: 400.0 mg/kg/injection, schedule: Q04DX003 (ip), vehicle: saline with Tween-80 86 % of control

CCC/C=N/Nc1ccnc(SCc2ccccc2)n1
inactive: dose: 75.0 mg/kg/injection, schedule: Q01DX009 (ip), vehicle: DMSO 88 % of control

CNC(=O)NC1C(O)COC(OC)C1O (stereo not drawn)
inactive: dose: 6.25 mg/kg/injection, schedule: Q01DX009 (ip), vehicle: saline with Tween-80 101 % of control | [4] 101 % of control | [5] 105 % of control | [6] 100 % of control

Cc1cc(O)c(C)c2c1CC[C@H]1[C@@H]2OC(=O)[C@@H]1C
inactive: dose: 100.0 mg/kg/injection, schedule: Q01DX001 (ip), vehicle: other 98 % of control | dose: 200.0 mg/kg/injection, schedule: Q01DX001 (ip), vehicle: other 92 % of control | dose: 400.0 mg/kg/injection, schedule: Q01DX001 (ip), vehicle: other 97 % of control

CNC(=O)OCCO
inactive: [16] 100 % of control | [17] 101 % of control | [18] 97 % of control

CCOC(=O)C(NC=O)(C(=O)OCC)C(C)c1c[nH]c2ccccc12 (stereo not drawn)
inactive: [7] 93 % of control | [8] 102 % of control | [2] 94 % of control | [9] 98 % of control | [3] 100 % of control | [10] 94 % of control

O=[N+]([O-])c1cccc2c1/C(=N/O)c1ccccc1-2
inactive: [11] 101 % of control | [12] 92 % of control | [13] 98 % of control

CCSC(SCC)C(OC(=O)c1ccccc1)C(OC(=O)c1ccccc1)C(COC(=O)c1ccccc1)OC(=O)c1ccccc1 (stereo not drawn)
inactive: [11] 102 % of control | [12] 102 % of control | [13] 96 % of control

CCCNC(=O)Oc1ccc(C(=O)OCC)cc1
inactive: [8] 93 % of control | [9] 98 % of control | [10] 94 % of control
